tested on: LTB4 in human leukocytes; test: Human Leukocyte LTB4 Inhibition Assay; type: cell-based; conditions: Leukocyte, 0.5 h; human leukocytes stimulated with calcium ionophore, 30 minutes at 37° C., LTB4 by ELISA; read-out: LTB4 HLA IC50
Procedure: A non-limiting example of a human leukocyte inhibition assay is as follows: Blood was drawn from consenting human volunteers into heparanized tubes and 3% dextran 0.9% saline ⅓ rd volume added. After sedimentation of red blood cells a hypotonic lysis of remaining red blood cells was performed and leukocytes sedimented at 1200 rpm. The pellet was resuspended at 1.25×10^5 cells/ml and aliquoted into wells containing 1 μL 100% DMSO (vehicle) or 2.5 μL drug in 100% DMSO. Samples were incubated for 5 minutes at 37° C. and 2 μL calcium ionophore […] (from a 50 mM DMSO stock diluted just prior to the assay in Hanks balanced salt solution (Invitrogen)) to 1.25 mM) was added, solutions mixed and incubated for 30 minutes at 37° C. Samples were centrifuged at 1,200 rpm (˜200×g) for 10 minutes at 4° C., plasma removed and a 1:4 dilution assayed for LTB4 concentration using ELISA (Assay Designs). Drug concentrations to achieve 50% inhibition (IC50's) of vehicle LTB4 were determined by nonlinear regression (Graphpad Prism) of % inhibition versus log drug concentration.

Structure (SMILES) | IC50
CCC(O)(c1cn(Cc2ccc3c(-c4ccc(F)cc4)c(C#N)nn3c2)nn1)C(F)(F)F (centres unmarked) [Compound 1-11, 3-(4-Fluoro-phenyl)-6-[4-(1-hydroxy-1-trifluoromethyl-propyl)-[1,2,3]triazol-1-ylmethyl]-pyrazolo[1,5-a]pyridine-2-carbonitrile] | < 0.3 µM
CCOC(=O)c1cn2cc(Cn3cc(C(O)(CC)C(F)(F)F)nn3)ccc2c1-c1ccc(OC)nc1 (centres unmarked) [Compound 1-13, 6-[4-(1-Hydroxy-1-trifluoromethyl-propyl)-[1,2,3]triazol-1-ylmethyl]-1-(6-methoxy-pyridin-3-yl)-indolizine-2-carboxylic acid ethyl ester] | < 0.3 µM
C=C(C)c1c(C(=O)OCC)cn2cc(Cn3cc(C(O)(CC)C(F)(F)F)nn3)ccc12 (centres unmarked) [Compound 1-7, 6-[4-(1-Hydroxy-1-trifluoromethyl-propyl)-[1,2,3]triazol-1-ylmethyl]-1-isopropenyl-indolizine-2-carboxylic acid ethyl ester] | < 0.3 µM
CCOC(=O)c1cn2cc(Cn3cc(C(O)(CC)C(F)(F)F)nn3)ccc2c1C(C)C (centres unmarked) [Compound 1-8, 6-[4-(1-Hydroxy-1-trifluoromethyl-propyl)-[1,2,3]triazol-1-ylmethyl]-1-isopropyl-indolizine-2-carboxylic acid ethyl ester] | < 0.3 µM
CCOC(=O)c1cn2cc(Cn3cc(C(O)(CC)C(F)(F)F)nn3)ccc2c1-c1ccc(F)cc1 (centres unmarked) [Compound 1-1, 1-(4-Fluoro-phenyl)-6-[4-(1-hydroxy-1-trifluoromethyl-propyl)-[1,2,3]-triazol-1-ylmethyl]-indolizine-2-carboxylic acid ethyl ester] | < 0.3 µM
CCC(O)(c1cn(Cc2ccc3c(-c4ccc(F)cc4)c(C#N)cn3c2)nn1)C(F)(F)F (centres unmarked) [Compound 1-3, 1-(4-Fluoro-phenyl)-6-[4-(1-hydroxy-1-trifluoromethyl-propyl)-[1,2,3]triazol-1-ylmethyl]-indolizine-2-carbonitrile] | < 0.3 µM
CCC(O)(c1cn(Cc2ccc3c(-c4ccc(F)cc4)c(C(N)=O)cn3c2)nn1)C(F)(F)F (single isomer, unassigned; enantiomer a) [Compound 1-5, 1-(4-Fluoro-phenyl)-6-[4-(1-hydroxy-1-trifluoromethyl-propyl)-[1,2,3]triazol-1-ylmethyl]-indolizine-2-carboxylic acid amide (Enantiomer A)] | < 0.3 µM
CCC(O)(c1cn(Cc2ccc3c(-c4ccc(OC)nc4)c(C(N)=O)cn3c2)nn1)C(F)(F)F (centres unmarked) [Compound 1-14, 6-[4-(1-Hydroxy-1-trifluoromethyl-propyl)-[1,2,3]triazol-1-ylmethyl]-1-(6-methoxy-pyridin-3-yl)-indolizine-2-carboxylic acid amide] | < 0.3 µM
CCC(O)(c1cn(Cc2ccc3c(C(C)C)c(C(N)=O)cn3c2)nn1)C(F)(F)F (centres unmarked) [Compound 1-9, 6-[4-(1-Hydroxy-1-trifluoromethyl-propyl)-[1,2,3]triazol-1-ylmethyl]-1-isopropyl-indolizine-2-carboxylic acid amide] | > 1 µM
CCC(O)(c1cn(Cc2ccc3c(-c4ccc(F)cc4)c(C(N)=O)nn3c2)nn1)C(F)(F)F (centres unmarked) [Compound 1-12, 3-(4-Fluoro-phenyl)-6-[4-(1-hydroxy-1-trifluoromethyl-propyl)-[1,2,3]-triazol-1-ylmethyl]-pyrazolo[1,5-a]pyridine-2-carboxylic acid amide] | < 0.3 µM
CCOC(=O)c1cn2cc(CNc3nnc(C(O)(CC)C(F)(F)F)o3)ccc2c1-c1ccc(F)cc1 (centres unmarked) [Compound 1-4, 1-(4-Fluoro-phenyl)-6-{[5-(1-hydroxy-1-trifluoromethyl-propyl)-[1,3,4]oxadiazol-2-ylamino]-methyl}-indolizine-2-carboxylic acid ethyl ester] | < 0.3 µM
CCC(O)(c1cn(Cc2ccc3c(C(C)C)c(C#N)cn3c2)nn1)C(F)(F)F (centres unmarked) [Compound 1-10, 6-[4-(1-Hydroxy-1-trifluoromethyl-propyl)-[1,2,3]triazol-1-ylmethyl]-1-isopropyl-indolizine-2-carbonitrile] | < 0.3 µM
CCC(O)(c1cn(Cc2ccc3c(-c4ccc(F)cc4)c(C(N)=O)cn3c2)nn1)C(F)(F)F (centres unmarked) [Compound 1-2, 1-(4-Fluoro-phenyl)-6-[4-(1-hydroxy-1-trifluoromethyl-propyl)-[1,2,3]triazol-1-ylmethyl]-indolizine-2-carboxylic acid amide] | < 0.3 µM

same assay, conditions: human leukocytes stimulated with calcium ionophore, 30 minutes at 37° C., LTB4 by ELISA; read-out: LTB4 HLA IC50

Structure (SMILES) | IC50
CCC(O)(c1cn(Cc2ccc3c(-c4ccc(F)cc4)c(C(N)=O)cn3c2)nn1)C(F)(F)F (single isomer, unassigned; enantiomer b) [Compound 1-6, 1-(4-Fluoro-phenyl)-6-[4-(1-hydroxy-1-trifluoromethyl-propyl)-[1,2,3]triazol-1-ylmethyl]-indolizine-2-carboxylic acid amide (Enantiomer B)] | < 0.3 µM

From patent US20120214840A1, “INDOLIZINE INHIBITORS OF 5-LIPOXYGENASE” (PANMIRA PHARMACEUTICALS, LLC, priority 2009, published 2012)
